Test results as given in patent US20220257775A1 (GLYCOMIMETICS, INC., priority 2019, published 2022).

Molecular target: T1, recombinant human E-selectin/CD63E Fc Chimera (Homo sapiens, UniProt P16581)
T1 construct: Fc (human IgG Fc fusion partner); purchased R & D systems
Test: E-Selectin Activity - Analysis by SPR
Assay type: binding
Settings: Biacore X100, E-selectin captured on anti-human IgG (Fc) chip
Method: Surface Plasmon Resonance (SPR) measurements were performed on a Biacore X100 instrument (GE Healthcare). A CM5 sensor chip (GE Healthcare) was used for the interaction between E-selectin and GMI compound. Anti-human IgG (Fc) antibody (GE Healthcare) was immobilized onto the chip by amine coupling according to the manufacturer's instructions. In brief, after a 7-min injection (flow rate of 5 μl/min) of 1:1 mixture of N-ethyl-N′-(3-dimethylaminopropyl) carbodiimide hydrochloride and N-hydroxysuccinimide, anti-human IgG (Fc) antibody (25 μg/ml in 10 mM sodium acetate buffer, pH 5.0) was injected using a 6-min injection at 5 μl/min. Remaining activated groups were blocked by injecting 1 M ethanolamine/HCl, pH 8.5. The recombinant human E-selectin/CD63E Fc Chimera (50 μg/ml) (R & D systems) was injected into the experimental cell until 6000-7000 RU was captured onto the antibody surface. No recombinant human E-selectin/CD63E was injected into the control cell. Increasing concentrations of GMI compound samples were injected at 30 μl/min into both flow cells and all sensorgrams were recorded against the control. Regeneration of the anti-human IgG (Fc) surface was achieved by injecting 3M magnesium chloride, followed by 50 mM sodium hydroxide. Data were analyzed using Biacore X100 evaluation/BIA evaluation 4.1.1 software (GE Healthcare) and Graphad prism 6 software.

T1 sequence (P16581 with tags, fused parts or gaps limits assumed): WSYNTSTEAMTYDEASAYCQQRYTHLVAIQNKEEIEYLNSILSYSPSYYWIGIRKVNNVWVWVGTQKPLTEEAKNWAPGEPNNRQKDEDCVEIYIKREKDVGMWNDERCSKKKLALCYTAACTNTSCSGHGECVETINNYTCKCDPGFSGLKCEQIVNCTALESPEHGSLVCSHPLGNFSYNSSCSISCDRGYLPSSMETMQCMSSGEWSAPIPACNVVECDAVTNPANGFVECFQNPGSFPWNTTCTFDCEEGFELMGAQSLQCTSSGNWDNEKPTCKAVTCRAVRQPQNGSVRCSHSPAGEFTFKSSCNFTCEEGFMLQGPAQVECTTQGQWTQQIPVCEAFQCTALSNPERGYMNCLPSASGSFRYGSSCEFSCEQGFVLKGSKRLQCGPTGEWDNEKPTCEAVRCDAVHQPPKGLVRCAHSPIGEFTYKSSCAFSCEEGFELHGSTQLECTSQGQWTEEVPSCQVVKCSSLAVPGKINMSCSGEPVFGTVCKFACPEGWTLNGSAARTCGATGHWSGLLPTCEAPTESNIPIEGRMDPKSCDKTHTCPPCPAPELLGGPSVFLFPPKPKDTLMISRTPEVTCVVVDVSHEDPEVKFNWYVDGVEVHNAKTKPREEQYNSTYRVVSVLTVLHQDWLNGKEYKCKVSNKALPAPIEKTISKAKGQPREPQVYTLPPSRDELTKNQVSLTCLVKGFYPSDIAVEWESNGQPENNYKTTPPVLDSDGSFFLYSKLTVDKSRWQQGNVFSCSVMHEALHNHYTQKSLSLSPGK

Q: Which Kd does the source give for `CC[C@H]1C[C@@H](C(=O)OC)C[C@@H](O[C@@H]2O[C@H](CO)[C@H](O)[C@H](O[C@@H](CC3CCCCC3)C(=O)O)[C@H]2NC(C)=O)[C@@H]1O[C@@H]1O[C@@H](C)[C@@H](O)[C@@H](O)[C@@H]1O` [Compound 3, reference compound] here?
A: 2260 nM

Q: Which Kd does the source give for `CC[C@H]1C[C@@H](C(=O)NCCNC(=O)CCOCCOCCOCCOCCOCCOCCOCCOCCOCCOCCOCCOCCOCCOCCOCCOCCOCCC(=O)NCCNC(=O)[C@@H]2C[C@H](CC)[C@@H](O[C@@H]3O[C@@H](C)[C@@H](O)[C@@H](O)[C@@H]3O)[C@H](O[C@@H]3O[C@H](CO)[C@H](O)[C@H](O[C@@H](CC4CCCCC4)C(=O)O)[C@H]3NC(C)=O)C2)C[C@@H](O[C@@H]2O[C@H](CO)[C@H](O)[C@H](O[C@@H](CC3CCCCC3)C(=O)O)[C@H]2NC(C)=O)[C@@H]1O[C@@H]1O[C@@H](C)[C@@H](O)[C@@H](O)[C@@H]1O` [Compound 11] here?
A: 8.5 nM

Q: For `CC[C@H]1C[C@@H](C(=O)NCCNC(=O)CCOCCOCCOCCOCCOCCOCCOCCOCCOCCOCCOCCOCCOCCOCCOCCOCCOCCOCCOCCOCCOCCOCCOCCOCCOCCC(=O)NCCNC(=O)[C@@H]2C[C@H](CC)[C@@H](O[C@@H]3O[C@@H](C)[C@@H](O)[C@@H](O)[C@@H]3O)[C@H](O[C@@H]3O[C@H](CO)[C@H](O)[C@H](O[C@@H](CC4CCCCC4)C(=O)O)[C@H]3NC(C)=O)C2)C[C@@H](O[C@@H]2O[C@H](CO)[C@H](O)[C@H](O[C@@H](CC3CCCCC3)C(=O)O)[C@H]2NC(C)=O)[C@@H]1O[C@@H]1O[C@@H](C)[C@@H](O)[C@@H](O)[C@@H]1O` [Compound 12], which Kd is on record?
A: 3.7 nM

Q: With `CC[C@H]1C[C@@H](C(=O)NCCNC(=O)CCOCCOCCOCCOCCOCCOCCOCCOCCOCCOCCOCCOCCOCCOCCOCCOCCOCCOCCOCCOCCOCCC(=O)NCCNC(=O)[C@@H]2C[C@H](CC)[C@@H](O[C@@H]3O[C@@H](C)[C@@H](O)[C@@H](O)[C@@H]3O)[C@H](O[C@@H]3O[C@H](CO)[C@H](O)[C@H](O[C@@H](CC4CCCCC4)C(=O)O)[C@H]3NC(C)=O)C2)C[C@@H](O[C@@H]2O[C@H](CO)[C@H](O)[C@H](O[C@@H](CC3CCCCC3)C(=O)O)[C@H]2NC(C)=O)[C@@H]1O[C@@H]1O[C@@H](C)[C@@H](O)[C@@H](O)[C@@H]1O` [Compound 13] as the compound, how does the Kd read?
A: 4.7 nM

Q: Which Kd does the source give for `CC[C@H]1C[C@@H](C(=O)NCCNC(=O)CCOCCOCCOCCOCCOCCOCCOCCOCCOCCOCCOCCOCCOCCC(=O)NCCNC(=O)[C@@H]2C[C@H](CC)[C@@H](O[C@@H]3O[C@@H](C)[C@@H](O)[C@@H](O)[C@@H]3O)[C@H](O[C@@H]3O[C@H](CO)[C@H](O)[C@H](O[C@@H](CC4CCCCC4)C(=O)O)[C@H]3NC(C)=O)C2)C[C@@H](O[C@@H]2O[C@H](CO)[C@H](O)[C@H](O[C@@H](CC3CCCCC3)C(=O)O)[C@H]2NC(C)=O)[C@@H]1O[C@@H]1O[C@@H](C)[C@@H](O)[C@@H](O)[C@@H]1O` [Compound 14] here?
A: 6.6 nM

Q: For `CC[C@H]1C[C@@H](C(=O)NCCNC(=O)CCOCCOCCOCCOCCOCCOCCOCCOCCOCCOCCC(=O)NCCNC(=O)[C@@H]2C[C@H](CC)[C@@H](O[C@@H]3O[C@@H](C)[C@@H](O)[C@@H](O)[C@@H]3O)[C@H](O[C@@H]3O[C@H](CO)[C@H](O)[C@H](O[C@@H](CC4CCCCC4)C(=O)O)[C@H]3NC(C)=O)C2)C[C@@H](O[C@@H]2O[C@H](CO)[C@H](O)[C@H](O[C@@H](CC3CCCCC3)C(=O)O)[C@H]2NC(C)=O)[C@@H]1O[C@@H]1O[C@@H](C)[C@@H](O)[C@@H](O)[C@@H]1O` [Compound 15], which Kd is on record?
A: 6 nM

Q: With `CC[C@H]1C[C@@H](C(=O)NCCNC(=O)CCOCCOCCOCCOCCOCCOCCC(=O)NCCNC(=O)[C@@H]2C[C@H](CC)[C@@H](O[C@@H]3O[C@@H](C)[C@@H](O)[C@@H](O)[C@@H]3O)[C@H](O[C@@H]3O[C@H](CO)[C@H](O)[C@H](O[C@@H](CC4CCCCC4)C(=O)O)[C@H]3NC(C)=O)C2)C[C@@H](O[C@@H]2O[C@H](CO)[C@H](O)[C@H](O[C@@H](CC3CCCCC3)C(=O)O)[C@H]2NC(C)=O)[C@@H]1O[C@@H]1O[C@@H](C)[C@@H](O)[C@@H](O)[C@@H]1O` [Compound 16] as the compound, how does the Kd read?
A: 6 nM

Q: Which Kd does the source give for `CC[C@H]1C[C@@H](C(=O)NCCNC(=O)CCOCCOCCOCCOCCC(=O)NCCNC(=O)[C@@H]2C[C@H](CC)[C@@H](O[C@@H]3O[C@@H](C)[C@@H](O)[C@@H](O)[C@@H]3O)[C@H](O[C@@H]3O[C@H](CO)[C@H](O)[C@H](O[C@@H](CC4CCCCC4)C(=O)O)[C@H]3NC(C)=O)C2)C[C@@H](O[C@@H]2O[C@H](CO)[C@H](O)[C@H](O[C@@H](CC3CCCCC3)C(=O)O)[C@H]2NC(C)=O)[C@@H]1O[C@@H]1O[C@@H](C)[C@@H](O)[C@@H](O)[C@@H]1O` [Compound 17] here?
A: 5.1 nM

Q: With `CC[C@H]1C[C@@H](C(=O)NCCNC(=O)CCOCCOCCC(=O)NCCNC(=O)[C@@H]2C[C@H](CC)[C@@H](O[C@@H]3O[C@@H](C)[C@@H](O)[C@@H](O)[C@@H]3O)[C@H](O[C@@H]3O[C@H](CO)[C@H](O)[C@H](O[C@@H](CC4CCCCC4)C(=O)O)[C@H]3NC(C)=O)C2)C[C@@H](O[C@@H]2O[C@H](CO)[C@H](O)[C@H](O[C@@H](CC3CCCCC3)C(=O)O)[C@H]2NC(C)=O)[C@@H]1O[C@@H]1O[C@@H](C)[C@@H](O)[C@@H](O)[C@@H]1O` [Compound 18] as the compound, how does the Kd read?
A: 3.5 nM

Q: How did the Kd turn out when `CC[C@H]1CC(C(=O)NCCNC(=O)CCC(=O)NCCNC(=O)[C@@H]2C[C@H](CC)[C@@H](O[C@@H]3O[C@@H](C)[C@@H](O)[C@@H](O)[C@@H]3O)[C@H](O[C@@H]3O[C@H](CO)[C@H](O)[C@H](O[C@@H](CC4CCCCC4)C(=O)O)[C@H]3NC(C)=O)C2)C[C@@H](O[C@@H]2O[C@H](CO)[C@H](O)[C@H](O[C@@H](CC3CCCCC3)C(=O)O)[C@H]2NC(C)=O)[C@@H]1O[C@@H]1O[C@@H](C)[C@@H](O)[C@@H](O)[C@@H]1O` (stereo partly shown) [Compound 19] was run?
A: 10.2 nM

Q: How did the Kd turn out when `CC[C@H]1C[C@@H](C(=O)NCCNC(=O)CCOCCOCCOCCOCCOCCOCCOCCOCCOCCOCCC(=O)NCCNC(=O)[C@@H]2C[C@H](CC)[C@@H](O[C@@H]3O[C@@H](C)[C@@H](O)[C@@H](O)[C@@H]3O)[C@H](O[C@@H]3O[C@H](CO)[C@H](O)[C@H](O[C@@H](CC4CCCCC4)C(=O)N4CCC4)[C@H]3NC(C)=O)C2)C[C@@H](O[C@@H]2O[C@H](CO)[C@H](O)[C@H](O[C@@H](CC3CCCCC3)C(=O)N3CCC3)[C@H]2NC(C)=O)[C@@H]1O[C@@H]1O[C@@H](C)[C@@H](O)[C@@H](O)[C@@H]1O` [Compound 20] was run?
A: 0.8 nM

Q: How did the Kd turn out when `CC[C@H]1C[C@@H](C(=O)NCCNC(=O)CCOCCOCCOCCOCCOCCOCCOCCOCCOCCOCCC(=O)NCCNC(=O)[C@@H]2C[C@H](CC)[C@@H](O[C@@H]3O[C@@H](C)[C@@H](O)[C@@H](O)[C@@H]3O)[C@H](O[C@@H]3O[C@H](CO)[C@H](O)[C@H](O[C@@H](CC4CCCCC4)C(=O)N(C)C)[C@H]3NC(C)=O)C2)C[C@@H](O[C@@H]2O[C@H](CO)[C@H](O)[C@H](O[C@@H](CC3CCCCC3)C(=O)N(C)C)[C@H]2NC(C)=O)[C@@H]1O[C@@H]1O[C@@H](C)[C@@H](O)[C@@H](O)[C@@H]1O` [Compound 21] was run?
A: 18.3 nM

Q: How did the Kd turn out when `CC[C@H]1C[C@@H](C(=O)NCCNC(=O)CCOCCOCCOCCOCCC(=O)NCCNC(=O)[C@@H]2C[C@H](CC)[C@@H](O[C@@H]3O[C@@H](C)[C@@H](O)[C@@H](O)[C@@H]3O)[C@H](O[C@@H]3O[C@H](CO)[C@H](O)[C@H](O[C@@H](CC4CCCCC4)C(=O)N4CCC4)[C@H]3NC(C)=O)C2)C[C@@H](O[C@@H]2O[C@H](CO)[C@H](O)[C@H](O[C@@H](CC3CCCCC3)C(=O)N3CCC3)[C@H]2NC(C)=O)[C@@H]1O[C@@H]1O[C@@H](C)[C@@H](O)[C@@H](O)[C@@H]1O` [Compound 23] was run?
A: 2.8 nM

Q: Which Kd does the source give for `CC[C@H]1C[C@@H](C(=O)NCCNC(=O)CCOCCOCCOCCOCCOCCOCCC(=O)NCCNC(=O)[C@@H]2C[C@H](CC)[C@@H](O[C@@H]3O[C@@H](C)[C@@H](O)[C@@H](O)[C@@H]3O)[C@H](O[C@@H]3O[C@H](CO)[C@H](O)[C@H](O[C@@H](CC4CCCCC4)C(=O)N4CCC4)[C@H]3NC(C)=O)C2)C[C@@H](O[C@@H]2O[C@H](CO)[C@H](O)[C@H](O[C@@H](CC3CCCCC3)C(=O)N3CCC3)[C@H]2NC(C)=O)[C@@H]1O[C@@H]1O[C@@H](C)[C@@H](O)[C@@H](O)[C@@H]1O` [Compound 24] here?
A: 2.4 nM

Q: How did the Kd turn out when `CC[C@H]1C[C@@H](C(=O)NCCNC(=O)CCOCCOCCC(=O)NCCNC(=O)[C@@H]2C[C@H](CC)[C@@H](O[C@@H]3O[C@@H](C)[C@@H](O)[C@@H](O)[C@@H]3O)[C@H](O[C@@H]3O[C@H](CO)[C@H](O)[C@H](O[C@@H](CC4CCCCC4)C(=O)N4CCC4)[C@H]3NC(C)=O)C2)C[C@@H](O[C@@H]2O[C@H](CO)[C@H](O)[C@H](O[C@@H](CC3CCCCC3)C(=O)N3CCC3)[C@H]2NC(C)=O)[C@@H]1O[C@@H]1O[C@@H](C)[C@@H](O)[C@@H](O)[C@@H]1O` [Compound 25] was run?
A: 3 nM

Q: For `CC[C@H]1C[C@@H](C(=O)NCCNC(=O)c2cn(CCOCCOCCn3cc(C(=O)NCCNC(=O)[C@@H]4C[C@H](CC)[C@@H](O[C@@H]5O[C@@H](C)[C@@H](O)[C@@H](O)[C@@H]5O)[C@H](O[C@@H]5O[C@H](CO)[C@H](O)[C@H](O[C@@H](CC6CCCCC6)C(=O)O)[C@H]5NC(C)=O)C4)nn3)nn2)C[C@@H](O[C@@H]2O[C@H](CO)[C@H](O)[C@H](O[C@@H](CC3CCCCC3)C(=O)O)[C@H]2NC(C)=O)[C@@H]1O[C@@H]1O[C@@H](C)[C@@H](O)[C@@H](O)[C@@H]1O` [Compound 28], which Kd is on record?
A: 3.2 nM
